Assay results published in BindingDB's records for doi:10.1021/jm030040o (Schering-Plough Research Institute, 2003).

Molecular target: Genome polyprotein (Hepatitis C virus)
Experiment: Binding constant against hepatitis C virus (HCV) protease

| SMILES | Ki [nM] |
| --- | --- |
| CC[C@H](C)[C@H](NC(=O)[C@H](CC(C)C)NC(=O)[C@@H](CCC(=O)O)NC(=O)[C@H](CC(=O)O)NC(C)=O)C(=O)N[C@@H](CC1CCCCC1)C(=O)N[C@@H](CS)C(=O)O [(S)-4-((S)-2-Acetylamino-3-carboxy-propionylamino)-4-((R)-(S)-1-{1-[(R)-(R)-1-((S)-1-carboxy-2-mercapto-ethylcarbamoyl)-2-cyclohexyl-ethylcarbamoyl]-2-methyl-butylcarbamoyl}-3-methyl-butylcarbamoyl)-butyric acid] | 120 |
| CC[C@H](C)[C@H](NC(=O)[C@H](CC(C)C)NC(=O)[C@@H](CCC(=O)O)NC(=O)[C@H](CC(=O)O)NC(C)=O)C(=O)N[C@@H](CC1CCCCC1)C(=O)N[C@@H](CCS)C(=O)O [2-[(S)-(S)-2-((R)-2-{(S)-2-[(R)-2-((S)-2-Acetylamino-3-carboxy-propionylamino)-4-(S)-carboxy-butyrylamino]-4-methyl-pentanoylamino}-3-methyl-pentanoylamino)-3-cyclohexyl-propionylamino]-4-mercapto-butyric acid] | 80000 |
| CCCC[C@H](NC(=O)[C@H](CC1CCCCC1)NC(=O)[C@@H](NC(=O)[C@H](CC(C)C)NC(=O)[C@@H](CCC(=O)O)NC(=O)[C@H](CC(=O)O)NC(C)=O)[C@@H](C)CC)C(=O)O [2-[(S)-(S)-2-((R)-2-{(S)-2-[(R)-2-((S)-2-Acetylamino-3-carboxy-propionylamino)-4-(S)-carboxy-butyrylamino]-4-methyl-pentanoylamino}-3-methyl-pentanoylamino)-3-cyclohexyl-propionylamino]-hexanoic acid] | 2000 |
| CCC[C@H](NC(=O)[C@H](CC1CCCCC1)NC(=O)[C@@H](NC(=O)[C@H](CC(C)C)NC(=O)[C@@H](CCC(=O)O)NC(=O)[C@H](CC(=O)O)NC(C)=O)[C@@H](C)CC)C(=O)O [(S)-2-[(S)-2-((R)-2-{(S)-2-[(R)-2-((S)-2-Acetylamino-3-carboxy-propionylamino)-4-(S)-carboxy-butyrylamino]-4-methyl-pentanoylamino}-3-methyl-pentanoylamino)-3-cyclohexyl-propionylamino]-pentanoic acid] | 130 |
| CC[C@H](C)[C@H](NC(=O)[C@H](CC(C)C)NC(=O)[C@@H](CCC(=O)O)NC(=O)[C@H](CC(=O)O)NC(C)=O)C(=O)N[C@@H](CC1CCCCC1)C(=O)N[C@@H](CSC)C(=O)O [(S)-4-((S)-2-Acetylamino-3-carboxy-propionylamino)-4-((R)-(S)-1-{1-[(R)-(R)-1-((S)-1-carboxy-2-methylsulfanyl-ethylcarbamoyl)-2-cyclohexyl-ethylcarbamoyl]-2-methyl-butylcarbamoyl}-3-methyl-butylcarbamoyl)-butyric acid] | 500 |
| CCSC[C@H](NC(=O)[C@H](CC1CCCCC1)NC(=O)[C@@H](NC(=O)[C@H](CC(C)C)NC(=O)[C@@H](CCC(=O)O)NC(=O)[C@H](CC(=O)O)NC(C)=O)[C@@H](C)CC)C(=O)O [(S)-4-((S)-2-Acetylamino-3-carboxy-propionylamino)-4-((R)-(S)-1-{1-[(R)-(R)-1-((S)-1-carboxy-2-ethylsulfanyl-ethylcarbamoyl)-2-cyclohexyl-ethylcarbamoyl]-2-methyl-butylcarbamoyl}-3-methyl-butylcarbamoyl)-butyric acid] | 5000 |
| CC[C@H](NC(=O)[C@H](CC1CCCCC1)NC(=O)[C@@H](NC(=O)[C@H](CC(C)C)NC(=O)[C@@H](CCC(=O)O)NC(=O)[C@H](CC(=O)O)NC(C)=O)[C@@H](C)CC)C(=O)O [2-[(S)-(S)-2-((R)-2-{(S)-2-[(R)-2-((S)-2-Acetylamino-3-carboxy-propionylamino)-4-(S)-carboxy-butyrylamino]-4-methyl-pentanoylamino}-3-methyl-pentanoylamino)-3-cyclohexyl-propionylamino]-butyric acid] | 600 |
